Experimental data: patent publication US20080234498A1, “Pyrovalerone Analogues and Therapeutic Uses Thereof” (PRESIDENT AND FELLOW OF HARVARD COLLEGE, priority 2003, published 2008)
Where a name gives a salt, the structure may show the parent alone. Read-outs that look alike come from different tables or passages of the source. Marks after values point to notes of the source that are not given here.

Experiments:
[1] = molecular target: dopamine transporter (DAT) (Homo sapiens, UniProt Q01959); test: Radioreceptor assay, inhibition of (3H)WIN 35,428 binding to the dopamine transporter
Excerpt: Dysfunction of dopamine neurons has been implicated in several neuropsychiatric diseases. Imaging of the dopamine neurons offers important clinical information relevant to diagnosis and therapeutic treatments. Dopamine neurons produce dopamine, release the neurotransmitter and remove the released dopamine with a dopamine transporter protein. Compounds that bind to the dopamine transporter are effective measures of dopamine neurons and can be transformed into imaging agents for PET and for SPECT imaging (see, e.g., Example 70, infra, for use of PET imaging). In identifying a suitable compound for the dopamine transporter, an essential first step is to measure the affinity and selectivity of a candidate at the dopamine transporter. The affinity can be measured by conducting radioreceptor assays. A radiolabeled marker for the transporter, e.g., (^3H)WIN 35,428, is incubated with the unlabeled candidate and a source of the transporter, usually brain striatum. The effect of various concentrations of the candidate on inhibiting (^3H)WIN 35,428 binding is quantified. The concentration of the compound that inhibits 50% of (^3H)WIN 35,428 bound to the transporter (IC50 value) is used as a measure of its affinity for the transporter. A suitable range of concentrations of the candidate typically is about 1 nM up to about 100 nM, more preferably 1 to 10 nM.
(§1) ^3H-WIN 35,428 (^3H-CFT, 2β-carbomethoxy-3β-(4-fluorophenyl)-N-^3H-methyltropane, 79.4-87.0 Ci/mmol) and ^3H-citalopram (86.8 Ci/mmol) is purchased from DuPont-New England Nuclear (Boston, Mass.). HPLC analyses are carried out on a Waters 510 system with detection at 254 nm on a Chiralcel OC column (flow rate: 1 mL/min).

[2] = molecular target: T1, dopamine transporter (Macaca mulatta, UniProt Q7JHP9); test: Dopamine transporter occupancy by PET imaging with [11C]CFT; type: in vivo, Rhesus monkeys; settings: for [11C]CFT with Compound (binding potential) / % Occupancy / % Occupancy, cerebellum levels considered background: rhesus monkey; for [11C]CFT with Compound (binding potential): compound intravenously, PET one hour after administration; for % Occupancy / % Occupancy, cerebellum levels considered background: i.v., one hour; for % Occupancy: from reduced [11C]CFT binding potential vs baseline; for Brain entry and occupancy of DAT sites (in words): living brain, PET imaging, cerebellum as the negative control; for % Occupancy, cerebellum levels considered background: reduced to levels of cerebellum = full occupancy
T1 construct: occupy the dopamine transporter in living brain; from tissue; host or cells: living brain of rhesus monkeys (in vivo PET)
Description: As the compounds of the invention are high affinity ligands for the dopamine transporter, we determined whether they occupy the dopamine transporter in living brain within 1 hour of administration. To monitor occupancy of the dopamine transporter, PET imaging was conducted with the high affinity dopamine transporter probe [11C]CFT ([11C]WIN 35,428). Rhesus monkeys were anesthetized with ketamine and xylazine and an indwelling intravenous catheter was placed in a leg vein. DAT density (binding potential) was acquired with [11C]CFT to obtain baseline levels. Immediately following completion of the imaging session, monkeys were administered the test compound intravenously via the indwelling catheter and PET imaging was conducted one hour after administration. Imaging data from the pre- and post-drug session were compared and occupancy was calculated on the basis of reduced [11C]CFT binding potential one hour or longer after administration of the compound. The following table (Table 1) summarizes pilot data from this study.

[3] = molecular target: serotonin transporter (SERT) (Homo sapiens, UniProt P31645); test: Radioreceptor assay, inhibition of (3H)citalopram binding to the serotonin transporter
Description: The serotonin transporter is also detectable in the striatum, the brain region with the highest density of dopamine neurons and in brain regions surrounding the striatum. […] Therefore, a measure of probe affinity of the serotonin transport is conducted by assays paralleling the dopamine transporter assays.
as §1

T1 sequence (Q7JHP9 1-620): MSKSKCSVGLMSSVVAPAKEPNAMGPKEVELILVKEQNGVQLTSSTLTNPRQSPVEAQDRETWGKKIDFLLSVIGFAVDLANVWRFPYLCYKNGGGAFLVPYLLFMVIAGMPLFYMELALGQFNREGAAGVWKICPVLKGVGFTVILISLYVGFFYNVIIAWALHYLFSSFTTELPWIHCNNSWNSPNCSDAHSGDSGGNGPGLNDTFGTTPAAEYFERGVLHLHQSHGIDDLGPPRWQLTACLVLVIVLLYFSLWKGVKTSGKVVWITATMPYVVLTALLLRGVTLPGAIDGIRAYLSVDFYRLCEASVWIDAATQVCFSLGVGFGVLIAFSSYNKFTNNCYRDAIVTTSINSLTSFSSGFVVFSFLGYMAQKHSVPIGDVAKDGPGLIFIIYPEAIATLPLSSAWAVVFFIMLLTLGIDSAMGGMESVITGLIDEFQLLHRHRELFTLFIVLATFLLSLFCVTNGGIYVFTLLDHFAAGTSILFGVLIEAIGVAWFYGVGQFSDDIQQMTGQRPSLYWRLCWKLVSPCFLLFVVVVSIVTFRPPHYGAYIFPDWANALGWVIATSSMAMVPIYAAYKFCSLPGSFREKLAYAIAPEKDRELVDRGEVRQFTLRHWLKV
Chain of dopamine transporter (DAT) (Q01959 whole entry, species assumed): as the sequence (Q7JHP9 1-620) above, with M24V, V137I, S194P, G198S, N200D, G201S, P202S counted along it
Chain of serotonin transporter (SERT) (P31645 whole entry, species assumed): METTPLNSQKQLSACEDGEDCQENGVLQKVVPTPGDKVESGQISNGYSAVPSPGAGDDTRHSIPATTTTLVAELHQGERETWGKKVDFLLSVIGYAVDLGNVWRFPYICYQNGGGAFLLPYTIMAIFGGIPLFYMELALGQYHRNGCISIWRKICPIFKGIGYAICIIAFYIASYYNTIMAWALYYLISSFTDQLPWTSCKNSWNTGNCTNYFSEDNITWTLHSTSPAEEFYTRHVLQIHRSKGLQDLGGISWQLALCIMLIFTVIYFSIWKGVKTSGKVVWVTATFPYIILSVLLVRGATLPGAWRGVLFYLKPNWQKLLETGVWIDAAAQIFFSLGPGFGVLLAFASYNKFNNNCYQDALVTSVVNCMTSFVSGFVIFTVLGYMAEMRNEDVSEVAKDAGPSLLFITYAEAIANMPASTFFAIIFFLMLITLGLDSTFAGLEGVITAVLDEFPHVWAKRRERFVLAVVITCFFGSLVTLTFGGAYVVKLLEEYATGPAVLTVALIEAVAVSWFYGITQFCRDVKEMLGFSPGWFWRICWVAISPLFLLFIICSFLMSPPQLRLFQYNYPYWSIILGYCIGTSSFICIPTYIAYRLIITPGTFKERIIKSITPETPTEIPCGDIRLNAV

SMILES	melting point	further results
CCCC(C(=O)c1ccc([N+](=O)[O-])cc1)N1CCCC1 (centres unmarked) (as salt: salt)	189 °C (dec.)	–
CCCC(C(=O)c1ccccc1)N1CCCC1 (centres unmarked) [Compound O-2387, 2-Pyrrolidin-1-yl-phenyl-pentan-1-one]	–	IC50 ([1]; affinity column of the PET occupancy table, read-out: DAT Affinity): 13 nM; [11C]CFT with Compound (binding potential) [2]: 0.7885; % Occupancy [2]: 64%
CCCC(C(=O)c1ccc(C)cc1)N1CCCC1 (racemic) (as salt: salt) [Compound O-2371, 2-Pyrrolidin-1-yl-1-p-tolyl-pentan-1-one]	180 °C (dec.)	–
CCCC(C(=O)c1ccc(I)cc1)N1CCCC1 (centres unmarked) (as salt: salt)	218 °C (dec.)	–
CCCC(C(=O)c1ccc(C#N)cc1)N1CCCC1 (centres unmarked) (as salt: salt)	197 to 199 °C (dec.)	–
CCCC(C(=O)c1cccc(I)c1)N1CCCC1 (centres unmarked) (as salt: salt)	203 °C (dec.)	–
CCC(CC(=O)c1ccc(C)cc1)N1CCCC1 (centres unmarked) (as salt: salt)	97 °C (dec.)	–
CCCC(C(=O)c1ccc(Br)cc1)N1CCCC1 (centres unmarked) [Compound O-2419, 2-Pyrrolidin-1-yl-1-(4′-bromo-phenyl)-pentan-1-one]	–	IC50 [1]: 8 nM; [11C]CFT with Compound (binding potential) [2]: 1.6025; % Occupancy [2]: 33%
CCCC(C(=O)c1ccc(C(F)(F)F)cc1)N1CCCC1 (centres unmarked) (as salt: salt)	228 °C (dec.)	–
CCCC(C(=O)c1ccc(O)c(O)c1)N1CCCC1 (centres unmarked) (as salt: salt)	181 to 182 °C	–
CCCC(C(=O)c1ccc(Cl)c(Cl)c1)N1CCCCC1 (centres unmarked) (as salt: salt)	202 °C (dec.)	–
C=CCC(C(=O)c1ccc(C)cc1)N1CCCC1 (centres unmarked) (as salt: salt)	196 °C (dec.)	–
CC#Cc1ccc(C(=O)C(CCC)N2CCCC2)cc1 (centres unmarked) (as salt: salt)	231 °C (dec.)	–
CCCC(N1CCCC1)C(O)(Cc1ccccc1)c1ccc(C)cc1 (centres unmarked) (as salt: salt)	211 °C (dec.)	–
CCCC(C(=O)c1ccc(F)cc1)N1CCCC1 (centres unmarked) (as salt: salt)	218 °C (dec.)	–
CCC(CC(=O)c1ccc(Cl)c(Cl)c1)N1CCCC1 (centres unmarked) (as salt: salt)	104 to 107 °C (dec.)	–

SMILES	melting point	further results
CCCC(C(=O)c1ccc(Cl)c(Cl)c1)N1CCCC1 (centres unmarked) (as salt: salt) [Compound O-2390, 2-Pyrrolidin-1-yl-1-(3,4-Dichloro-phenyl)-pentan-1-one]	195 °C (dec.)	–
CCC(C(=O)c1ccc(Cl)c(Cl)c1)N1CCCC1 (centres unmarked) (as salt: salt)	211 °C (dec.)	–
CCCC(C(=O)c1ccc(CO)cc1)N1CCCC1 (centres unmarked) (as salt: salt)	186 to 187 °C (dec.)	–
CCCC(C(=O)c1ccc(Cl)c(Cl)c1)N1CCCC1 (centres unmarked) [Compound O-2390, 2-Pyrrolidin-1-yl-1-(3,4-Dichloro-phenyl)-pentan-1-one]	–	IC50 [1]: 8 nM; [11C]CFT with Compound (binding potential) [2]: 0.5898; % Occupancy [2]: 56%
CCCC(C(=O)c1cccc(C)c1)N1CCCC1 (centres unmarked) (as salt: salt)	166 °C (dec.)	–
CCCC(C(=O)c1ccc(OC)c(OC)c1)N1CCCC1 (centres unmarked) (as salt: salt)	177 °C (dec.)	–
CCCC(C(=O)c1ccc(NC(C)=O)cc1)N1CCCC1 (centres unmarked) (as salt: salt)	195 °C (dec.)	–
CCCC(C(=O)c1ccc2ccccc2c1)N1CCCC1 (centres unmarked) (as salt: salt)	221 to 223 °C (dec.)	–
C#CCC(C(=O)c1ccc(C)cc1)N1CCCC1 (centres unmarked) (as salt: salt)	178 °C (dec.)	–
CCCC(C(=O)c1ccc(C(=O)OC)cc1)N1CCCC1 (centres unmarked) (as salt: salt)	202 °C (dec.)	–
CCCC(C(=O)c1ccc(Br)cc1)N1CCCC1 (centres unmarked) (as salt: salt) [Compound O-2419, 2-Pyrrolidin-1-yl-1-(4′-bromo-phenyl)-pentan-1-one]	200 °C (dec.)	–
CCCC(C(=O)c1ccc(-c2cccs2)cc1)N1CCCC1 (centres unmarked) (as salt: salt)	220 °C (dec.)	–
Cc1ccc(C(=O)C(CC(C)C)N2CCCC2)cc1 (centres unmarked) (as salt: salt)	218 °C (dec.)	–
CCC[C@@H](C(=O)c1ccc(C)cc1)N1CCCC1 [Compound O-2442, (2S)-2-Pyrrolidin-1-yl-1-p-tolyl-pentan-1-one]	–	IC50 [1]: 3 nM; DAT inhibition potency, comparison of enantiomers ([1]; 2S versus 2R enantiomer): more potent DAT inhibitor than the 2R-enantiomer; IC50 [3]: > 4000 nM; Brain entry and occupancy of DAT sites (in words) [2]: most efficient in entering the brain and occupying the majority of DAT sites; [11C]CFT with Compound (binding potential) [2]: 0.6112; % Occupancy [2]: 70%; % Occupancy, cerebellum levels considered background [2]: 100* %
CCCC(C(=O)c1ccc(C)cc1)N1CCCC1 (racemic) [Compound O-2371, 2-Pyrrolidin-1-yl-1-p-tolyl-pentan-1-one]	–	IC50 [1]: 8 nM; Brain entry and occupancy of DAT sites (in words) [2]: most efficient in entering the brain and occupying the majority of DAT sites; [11C]CFT with Compound (binding potential) [2]: 0.4551; % Occupancy [2]: 74%; % Occupancy, cerebellum levels considered background [2]: 100* %
